Source: ChEMBL document CHEMBL6182926, “Design, Synthesis, and Biological Activity Evaluation of Deuterated Diphenyl Azole Alcohol-Based CYP51 Inhibitors” (J Med Chem, 2025)

System: Cryptococcus neoformans
Assay: Antifungal activity against Cryptococcus neoformans CGMCC 2.3161 assessed as reduction in Obtusifoliol at 0.0125 ug/ml measured after 18 hrs incubation by gas chromatography-mass spectrometry (GCMS) analysis
Assay type: functional
Parameters: scale not given: the % may be the effect or the level left
Conditions: dose 0.0125 µg/ml

[2H]C([2H])([2H])N(Cc1ccc(-c2ccc(OC(F)(F)F)cc2)cc1)[C@H](C)[C@](O)(Cn1cncn1)c1ccc(F)cc1F
Activity: 5.76%
